Earlier results on 1 molecule are cited in US20210213091A1, “LIPOPHILIC ACTIVE AGENT INFUSED TOBACCO LEAVES AND/OR TOBACCO MATERIALS AND METHODS OF USE THEREOF” (priority 2018, published 2021).

For the molecule `CC1=CC[C@H]2C[C@@H]1C2(C)C` [α-Pinene, (1S,5S)-2,6,6-Trimethylbicyclo[3.1.1]hept-2-ene], the human pulmonary uptake is listed as 60%.
